Tests used:
[1] = target: JAK2 (Homo sapiens (Human), UniProt O60674); experiment: Biochemical JAK kinase assay (LanthaScreen), JAK2; details: for Ki: read-out: JAK2 pKi (converted)
Procedure, shortened: (§1)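 LanthaScreen format: phospho-STAT1 (pTyr701) detected with 2 nM Tb antibody after 10 mM EDTA quench. Kinase step used Km-level ATP and 200 nM STAT1 peptide, 1 h at ambient after 1 h pre-incubation. Inhibition fitted to IC50, reported as pKi.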

[2] = test system: IL-13 induced STAT6 phosphorylation in BEAS-2B human lung epithelial cells; experiment: Cellular JAKI potency assay (BEAS-2B); format: cell-based; details: Homo sapiens, BEAS-2B, BEAS-2B cells, read-out: BEAS2B pIC50 (converted)
Procedure, shortened: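 BEAS-2B cells were preincubated with compound (0.1% DMSO) in HBSS/HEPES/BSA for 1 h at 37 °C, then stimulated with IL-13 (80 ng/mL before addition) for 30 min. After lysis, pSTAT6 (Tyr641) was quantified by AlphaLISA SureFire; IC50 from a 4-parameter fit of percent inhibition, reported as pIC50.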

[3] = target: JAK1 (Homo sapiens (Human), UniProt P23458); experiment: Biochemical JAK kinase assay (LanthaScreen), JAK1; details: for Ki: read-out: JAK1 pKi (converted)
Procedure, shortened: as §1

[4] = target: JAK3 (Homo sapiens (Human), UniProt P52333); experiment: Biochemical JAK kinase assay (LanthaScreen), JAK3; details: read-out: JAK3 pKi (converted)
Method: (§2) A panel of four LanthaScreen JAK biochemical assays (JAK1, 2, 3 and Tyk2) were carried in a common kinase reaction buffer (50 mM HEPES, pH 7.5, 0.01% Brij-35, 10 mM MgCl2, and 1 mM EGTA). Recombinant GST-tagged JAK enzymes and a GFP-tagged STAT1 peptide substrate were obtained from Life Technologies.
(§3) Serially diluted compounds were pre-incubated with each of the four JAK enzymes and the substrate in white 384-well microplates (Corning) at ambient temperature for 1 h. ATP was subsequently added to initiate the kinase reactions in 10 μL total volume, with 1% DMSO. The final enzyme concentrations for JAK1, 2, 3 and Tyk2 are 4.2 nM, 0.1 nM, 1 nM, and 0.25 nM respectively; the corresponding Km ATP concentrations used are 25 μM, 3 μM, 1.6 μM, and 10 μM; while the substrate concentration is 200 nM for all four assays. Kinase reactions were allowed to proceed for 1 hour at ambient temperature before a 10 μL preparation of EDTA (10 mM final concentration) and Tb-anti-pSTAT1 (pTyr701) antibody (Life Technologies, 2 nM final concentration) in TR-FRET dilution buffer (Life Technologies) was added. The plates were allowed to incubate at ambient temperature for 1 h before being read on the EnVision reader (Perkin Elmer). Emission ratio signals (520 nm/495 nm) were recorded and utilized to calculate the percent inhibition values based on DMSO and background controls.
(§4) For dose-response analysis, percent inhibition data were plotted vs. compound concentrations, and IC50 values were determined from a 4-parameter robust fit model with the Prism software (GraphPad Software). Results were expressed as pIC50 (negative logarithm of IC50) and subsequently converted to pKi (negative logarithm of dissociation constant, Ki) using the Cheng-Prusoff equation.
(§5) Test compounds having a lower Ki value or higher pKi value in the four JAK assays show greater inhibition of JAK activity.

[5] = target: TYK2 (Homo sapiens (Human), UniProt P29597); experiment: Biochemical JAK kinase assay (LanthaScreen), Tyk2; details: read-out: Tyk2 pKi (converted)
Method: as §2, §3, §4, §5

Sequence of JAK3 (P52333 whole entry): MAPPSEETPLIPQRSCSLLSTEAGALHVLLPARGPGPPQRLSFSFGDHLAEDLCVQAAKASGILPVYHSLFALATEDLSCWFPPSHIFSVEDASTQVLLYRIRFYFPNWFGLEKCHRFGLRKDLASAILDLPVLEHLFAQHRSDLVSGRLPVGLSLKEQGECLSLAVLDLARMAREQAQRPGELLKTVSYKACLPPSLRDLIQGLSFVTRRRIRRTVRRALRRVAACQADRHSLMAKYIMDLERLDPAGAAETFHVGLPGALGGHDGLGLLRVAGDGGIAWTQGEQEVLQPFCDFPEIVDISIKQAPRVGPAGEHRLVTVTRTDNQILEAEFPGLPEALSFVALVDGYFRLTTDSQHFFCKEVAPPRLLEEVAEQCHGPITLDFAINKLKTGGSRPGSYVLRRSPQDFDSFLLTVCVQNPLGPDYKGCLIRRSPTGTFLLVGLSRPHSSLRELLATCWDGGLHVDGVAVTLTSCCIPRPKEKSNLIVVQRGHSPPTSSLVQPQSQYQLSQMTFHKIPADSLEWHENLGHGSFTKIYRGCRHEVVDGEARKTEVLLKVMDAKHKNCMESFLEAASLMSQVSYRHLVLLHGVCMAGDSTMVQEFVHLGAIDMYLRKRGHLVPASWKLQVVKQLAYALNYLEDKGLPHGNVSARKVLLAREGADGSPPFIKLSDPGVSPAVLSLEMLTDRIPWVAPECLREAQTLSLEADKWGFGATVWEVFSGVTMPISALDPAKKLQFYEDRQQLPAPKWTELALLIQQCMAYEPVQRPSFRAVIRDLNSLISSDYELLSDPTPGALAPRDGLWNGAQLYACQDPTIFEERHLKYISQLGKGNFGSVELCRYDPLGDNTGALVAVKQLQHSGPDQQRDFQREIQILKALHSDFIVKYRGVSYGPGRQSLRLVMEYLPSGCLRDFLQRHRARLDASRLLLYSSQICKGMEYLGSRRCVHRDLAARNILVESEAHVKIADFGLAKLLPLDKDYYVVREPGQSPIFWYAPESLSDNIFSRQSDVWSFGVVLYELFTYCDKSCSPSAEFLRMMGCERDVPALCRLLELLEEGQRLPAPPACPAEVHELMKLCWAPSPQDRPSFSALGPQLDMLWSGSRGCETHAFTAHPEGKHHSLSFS
Sequence of JAK2 (O60674 whole entry): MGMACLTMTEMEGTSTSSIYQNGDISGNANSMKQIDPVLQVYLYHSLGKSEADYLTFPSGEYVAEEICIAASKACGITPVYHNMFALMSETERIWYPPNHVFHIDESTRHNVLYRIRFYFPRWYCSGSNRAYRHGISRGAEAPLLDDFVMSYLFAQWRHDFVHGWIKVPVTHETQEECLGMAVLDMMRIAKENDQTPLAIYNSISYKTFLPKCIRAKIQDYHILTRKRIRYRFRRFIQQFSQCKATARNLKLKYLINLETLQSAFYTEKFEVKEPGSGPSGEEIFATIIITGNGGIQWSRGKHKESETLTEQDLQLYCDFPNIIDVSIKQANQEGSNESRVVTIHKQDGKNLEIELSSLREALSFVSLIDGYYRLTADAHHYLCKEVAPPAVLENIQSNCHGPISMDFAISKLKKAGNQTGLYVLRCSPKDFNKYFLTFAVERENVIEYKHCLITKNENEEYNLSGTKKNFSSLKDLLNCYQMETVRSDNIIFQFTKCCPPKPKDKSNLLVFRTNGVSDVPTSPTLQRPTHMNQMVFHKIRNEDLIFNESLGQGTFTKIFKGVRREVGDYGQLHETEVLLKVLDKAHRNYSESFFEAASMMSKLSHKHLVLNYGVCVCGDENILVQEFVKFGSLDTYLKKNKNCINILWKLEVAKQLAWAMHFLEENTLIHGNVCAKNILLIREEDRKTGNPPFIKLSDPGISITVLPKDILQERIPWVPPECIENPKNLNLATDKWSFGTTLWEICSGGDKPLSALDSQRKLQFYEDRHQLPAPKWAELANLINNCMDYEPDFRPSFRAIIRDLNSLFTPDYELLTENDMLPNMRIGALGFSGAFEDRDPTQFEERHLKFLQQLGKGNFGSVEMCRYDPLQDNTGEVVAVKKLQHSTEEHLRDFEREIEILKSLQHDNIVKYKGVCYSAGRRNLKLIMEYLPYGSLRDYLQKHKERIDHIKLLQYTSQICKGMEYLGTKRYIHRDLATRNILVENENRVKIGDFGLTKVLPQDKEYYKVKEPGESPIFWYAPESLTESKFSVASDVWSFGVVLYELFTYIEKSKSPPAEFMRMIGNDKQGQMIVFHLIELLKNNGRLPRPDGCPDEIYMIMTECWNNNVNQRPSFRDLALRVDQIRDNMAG
Sequence of JAK1 (P23458 whole entry): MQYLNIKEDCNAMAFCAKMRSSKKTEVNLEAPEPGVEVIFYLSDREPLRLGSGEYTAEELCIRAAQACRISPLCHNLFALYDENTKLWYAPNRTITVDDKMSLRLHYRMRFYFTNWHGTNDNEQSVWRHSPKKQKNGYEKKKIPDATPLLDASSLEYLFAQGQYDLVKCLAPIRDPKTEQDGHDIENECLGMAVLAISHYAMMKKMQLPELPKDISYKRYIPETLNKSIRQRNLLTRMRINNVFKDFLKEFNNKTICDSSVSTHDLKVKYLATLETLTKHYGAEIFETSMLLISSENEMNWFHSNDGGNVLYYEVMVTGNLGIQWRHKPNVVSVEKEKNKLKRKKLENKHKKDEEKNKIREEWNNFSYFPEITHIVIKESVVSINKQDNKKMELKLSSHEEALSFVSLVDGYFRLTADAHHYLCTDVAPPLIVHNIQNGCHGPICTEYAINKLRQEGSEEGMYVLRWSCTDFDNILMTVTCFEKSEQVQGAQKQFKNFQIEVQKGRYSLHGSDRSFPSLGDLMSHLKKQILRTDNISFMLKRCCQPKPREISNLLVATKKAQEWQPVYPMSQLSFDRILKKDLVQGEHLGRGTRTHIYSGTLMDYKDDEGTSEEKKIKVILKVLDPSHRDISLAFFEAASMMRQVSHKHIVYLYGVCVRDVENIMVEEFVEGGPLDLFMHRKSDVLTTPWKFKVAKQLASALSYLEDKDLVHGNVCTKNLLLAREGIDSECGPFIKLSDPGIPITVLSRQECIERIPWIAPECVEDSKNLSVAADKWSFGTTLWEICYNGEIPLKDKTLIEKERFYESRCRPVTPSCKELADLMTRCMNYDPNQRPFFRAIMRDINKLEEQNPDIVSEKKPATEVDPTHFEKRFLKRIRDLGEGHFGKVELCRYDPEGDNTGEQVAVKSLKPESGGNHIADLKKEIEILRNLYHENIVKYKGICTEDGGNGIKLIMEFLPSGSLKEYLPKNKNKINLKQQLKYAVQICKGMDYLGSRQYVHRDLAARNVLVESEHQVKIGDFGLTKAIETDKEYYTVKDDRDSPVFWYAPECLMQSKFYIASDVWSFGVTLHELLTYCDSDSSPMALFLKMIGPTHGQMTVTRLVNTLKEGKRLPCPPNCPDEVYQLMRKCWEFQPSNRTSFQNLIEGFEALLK
Sequence of TYK2 (P29597 whole entry): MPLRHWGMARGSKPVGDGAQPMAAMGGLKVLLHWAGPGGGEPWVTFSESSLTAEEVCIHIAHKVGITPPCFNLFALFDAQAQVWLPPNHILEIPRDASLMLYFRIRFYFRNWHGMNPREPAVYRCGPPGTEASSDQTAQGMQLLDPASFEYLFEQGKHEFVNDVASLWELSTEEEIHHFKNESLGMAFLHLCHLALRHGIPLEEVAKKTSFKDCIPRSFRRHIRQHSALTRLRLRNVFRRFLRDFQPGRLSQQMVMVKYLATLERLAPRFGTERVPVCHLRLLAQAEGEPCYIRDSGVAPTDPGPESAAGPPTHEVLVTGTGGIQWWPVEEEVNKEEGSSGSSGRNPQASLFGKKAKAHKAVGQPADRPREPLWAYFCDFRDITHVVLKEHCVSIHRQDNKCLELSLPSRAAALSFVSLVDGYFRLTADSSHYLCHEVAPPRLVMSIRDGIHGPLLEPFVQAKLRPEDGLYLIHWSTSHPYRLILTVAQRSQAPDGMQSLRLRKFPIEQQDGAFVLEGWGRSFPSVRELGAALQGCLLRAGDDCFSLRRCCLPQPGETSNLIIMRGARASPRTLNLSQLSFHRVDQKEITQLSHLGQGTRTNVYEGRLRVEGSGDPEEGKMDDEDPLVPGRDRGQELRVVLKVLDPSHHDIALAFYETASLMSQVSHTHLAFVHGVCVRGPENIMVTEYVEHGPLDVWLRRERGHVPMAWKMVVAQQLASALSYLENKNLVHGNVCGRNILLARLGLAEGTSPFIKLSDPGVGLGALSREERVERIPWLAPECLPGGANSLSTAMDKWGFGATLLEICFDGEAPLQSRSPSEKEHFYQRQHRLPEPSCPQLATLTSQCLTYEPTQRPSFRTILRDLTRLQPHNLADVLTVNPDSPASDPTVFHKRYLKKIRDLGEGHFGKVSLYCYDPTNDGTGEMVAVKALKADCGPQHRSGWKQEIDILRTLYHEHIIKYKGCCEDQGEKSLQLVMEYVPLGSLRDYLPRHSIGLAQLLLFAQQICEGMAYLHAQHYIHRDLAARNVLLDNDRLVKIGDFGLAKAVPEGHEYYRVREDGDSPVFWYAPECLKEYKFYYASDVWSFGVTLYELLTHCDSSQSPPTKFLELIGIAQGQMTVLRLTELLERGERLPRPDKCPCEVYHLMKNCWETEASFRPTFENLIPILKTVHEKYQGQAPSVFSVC

Compound: CCc1cc(O)ccc1-c1ccc2c(-c3nc(C4=CCN(C)CC4)c[nH]3)n[nH]c2c1 [Example 19]
- JAK2 pKi [1]: A (A represents a pKi value ≥10 (Ki≤0.1 nM))
- IC50 [2]: 3.16 to 10 nM
- JAK1 pKi [3]: A (A represents a pKi value ≥10 (Ki≤0.1 nM))
- Ki [4]: 0.1 to 1 nM
- Ki [5]: 0.1 to 1 nM

Compound: CCc1cc(O)ccc1-c1ccc2c(-c3nc(C4=CCN(C(C)C)CC4)c[nH]3)n[nH]c2c1 [Example 20]
- JAK2 pKi [1]: A (A represents a pKi value ≥10 (Ki≤0.1 nM))
- IC50 [2]: 3.16 to 10 nM
- JAK1 pKi [3]: A (A represents a pKi value ≥10 (Ki≤0.1 nM))
- Ki [4]: 0.1 to 1 nM
- Ki [5]: 1 to 10 nM

Compound: CCc1cc(O)ccc1-c1ccc2c(-c3nc(C4=CCN(CC)CC4)c[nH]3)n[nH]c2c1F [Example 23]
- Ki [1]: 0.1 to 1 nM
- IC50 [2]: 3.16 to 10 nM
- Ki [3]: 0.1 to 1 nM
- Ki [4]: 0.1 to 1 nM
- Ki [5]: 1 to 10 nM

Compound: CCCN1CC=C(c2c[nH]c(-c3n[nH]c4c(F)c(-c5ccc(O)cc5CC)ccc34)n2)CC1 [Example 24]
- JAK2 pKi [1]: A (A represents a pKi value ≥10 (Ki≤0.1 nM))
- IC50 [2]: 3.16 to 10 nM
- Ki [3]: 0.1 to 1 nM
- Ki [4]: 0.1 to 1 nM
- Ki [5]: 1 to 10 nM

Compound: CCc1cc(O)ccc1-c1ccc2c(-c3nc(C4=CCN(CC(C)C)CC4)c[nH]3)n[nH]c2c1F [Example 25]
- Ki [1]: 0.1 to 1 nM
- IC50 [2]: 10 to 31.6 nM
- Ki [3]: 0.1 to 1 nM
- Ki [4]: 0.1 to 1 nM
- Ki [5]: 10 to 100 nM

Compound: CCc1cc(O)ccc1-c1ccc2c(-c3nc(C4=CCCN(C)C4)c[nH]3)n[nH]c2c1 [Example 27]
- JAK2 pKi [1]: A (A represents a pKi value ≥10 (Ki≤0.1 nM))
- IC50 [2]: 3.16 to 10 nM
- JAK1 pKi [3]: A (A represents a pKi value ≥10 (Ki≤0.1 nM))
- Ki [4]: 0.1 to 1 nM
- Ki [5]: 1 to 10 nM

Compound: CCc1cc(O)ccc1-c1ccc2c(-c3nc(C4=CCCN(C)C4)c[nH]3)n[nH]c2c1F [Example 29]
- Ki [1]: 0.1 to 1 nM
- IC50 [2]: 3.16 to 10 nM
- Ki [3]: 0.1 to 1 nM
- Ki [4]: 0.1 to 1 nM
- Ki [5]: 1 to 10 nM

Compound: CCc1cc(O)ccc1-c1ccc2c(-c3nc(C4=CCCN(C(C)C)C4)c[nH]3)n[nH]c2c1F [Example 30]
- Ki [1]: 0.1 to 1 nM
- IC50 [2]: 10 to 31.6 nM
- Ki [3]: 0.1 to 1 nM
- Ki [4]: 0.1 to 1 nM
- Ki [5]: 1 to 10 nM

Compound: CCc1cc(O)ccc1-c1ccc2c(-c3nc(C4=CCN(C)C4)c[nH]3)n[nH]c2c1F [Example 31]
- Ki [1]: 0.1 to 1 nM
- IC50 [2]: 3.16 to 10 nM
- Ki [3]: 0.1 to 1 nM
- Ki [4]: 0.1 to 1 nM
- Ki [5]: 1 to 10 nM

Compound: CCc1cc(O)ccc1-c1ccc2c(-c3nc(C4=CCN(CCO)CC4)c[nH]3)n[nH]c2c1 [Example 33]
- JAK2 pKi [1]: A (A represents a pKi value ≥10 (Ki≤0.1 nM))
- IC50 [2]: 3.16 to 10 nM
- JAK1 pKi [3]: A (A represents a pKi value ≥10 (Ki≤0.1 nM))
- Ki [4]: 0.1 to 1 nM
- Ki [5]: 0.1 to 1 nM

Compound: CCc1cc(O)ccc1-c1ccc2c(-c3nc(C4=CCN(CCCO)CC4)c[nH]3)n[nH]c2c1 [Example 34]
- JAK2 pKi [1]: A (A represents a pKi value ≥10 (Ki≤0.1 nM))
- IC50 [2]: 3.16 to 10 nM
- JAK1 pKi [3]: A (A represents a pKi value ≥10 (Ki≤0.1 nM))
- Ki [4]: 0.1 to 1 nM
- Ki [5]: 1 to 10 nM

Compound: CCc1cc(O)ccc1-c1ccc2c(-c3nc(C4=CCN(CCO)CC4)c[nH]3)n[nH]c2c1F [Example 36]
- Ki [1]: 0.1 to 1 nM
- IC50 [2]: 3.16 to 10 nM
- JAK1 pKi [3]: A (A represents a pKi value ≥10 (Ki≤0.1 nM))
- Ki [4]: 0.1 to 1 nM
- Ki [5]: 1 to 10 nM

Compound: CCc1cc(O)ccc1-c1ccc2c(-c3nc(C4=CCCN(CCCO)C4)c[nH]3)n[nH]c2c1 [Example 42]
- JAK2 pKi [1]: A (A represents a pKi value ≥10 (Ki≤0.1 nM))
- IC50 [2]: 3.16 to 10 nM
- JAK1 pKi [3]: A (A represents a pKi value ≥10 (Ki≤0.1 nM))
- Ki [4]: 0.1 to 1 nM
- Ki [5]: 1 to 10 nM

Compound: CCc1cc(O)ccc1-c1ccc2c(-c3nc(C4=CCN(CCO)C4)c[nH]3)n[nH]c2c1 [Example 50]
- JAK2 pKi [1]: A (A represents a pKi value ≥10 (Ki≤0.1 nM))
- IC50 [2]: 3.16 to 10 nM
- JAK1 pKi [3]: A (A represents a pKi value ≥10 (Ki≤0.1 nM))
- Ki [4]: 0.1 to 1 nM
- Ki [5]: 0.1 to 1 nM

Compound: CCc1cc(O)ccc1-c1ccc2c(-c3nc(C4=CCN(CCO)C4)c[nH]3)n[nH]c2c1F [Example 53]
- JAK2 pKi [1]: A (A represents a pKi value ≥10 (Ki≤0.1 nM))
- IC50 [2]: 3.16 to 10 nM
- JAK1 pKi [3]: A (A represents a pKi value ≥10 (Ki≤0.1 nM))
- Ki [4]: 0.1 to 1 nM
- Ki [5]: 1 to 10 nM

Reference: patent US20240092758A1, “IMIDAZOLO INDAZOLE COMPOUNDS AS JAK INHIBITORS” (Theravance Biopharma R&D IP, LLC, priority 2021, published 2024)
